Data as given in the supplement of paper PMC10733146.

Key:
Assay in all cases: viability relative to DMSO control (fraction); higher = less drug effect (more viable cells)
Details in all cases: 48 h
[1] = system: primary AML patient cells (S012)
How it was run: (§1)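 In 384-well plates with compounds pre-plated at five concentrations (one well per concentration), primary mononuclear tumour cells were plated at 4 × 10^4 cells per well. The cells came from blood or bone marrow by Ficoll isolation or from processed lymph node, and were used fresh or cryopreserved. Culture ran for 48 h at 37 °C and 5% CO2 in RPMI-1640 containing penicillin/streptomycin, L-glutamine and human serum. Viability was read as CellTiter-Glo luminescence, normalised to the median of 16 inner DMSO wells.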

[2] = system: primary AML patient cells (S037)
How it was run: as §1

[3] = system: primary AML patient cells (S019)
How it was run: as §1

[4] = system: primary AML patient cells (S006)
How it was run: as §1

[5] = system: primary AML patient cells (S081)
How it was run: as §1

[6] = system: primary DLBCL patient cells (S076)
How it was run: as §1

[7] = system: primary AML patient cells (S007)
How it was run: as §1

[8] = system: primary AML patient cells (S089)
How it was run: as §1

[9] = system: primary AML patient cells (S011)
How it was run: as §1

[10] = system: primary AML patient cells (S017)
How it was run: as §1

[11] = system: primary AML patient cells (S021)
How it was run: as §1

[12] = system: primary AML patient cells (S002)
How it was run: as §1

[13] = system: primary DLBCL patient cells (S049)
How it was run: as §1

[14] = system: primary AML patient cells (S085)
How it was run: as §1

[15] = system: primary CLL patient cells (S043)
How it was run: as §1

[16] = system: primary T-NHL patient cells (S058)
How it was run: as §1

[17] = system: primary AML patient cells (S025)
How it was run: as §1

[18] = system: primary AML patient cells (S091)
How it was run: as §1

Question: What does the source list for `Cc1cc(Nc2ncc(Cl)c(Nc3ccccc3S(=O)(=O)C(C)C)n2)c(OC(C)C)cc1C1CCNCC1` [Ceritinib]?
Answer: viability ([1]; 0.024 µM): 1.05; viability ([1]; 0.12 µM): 1.03; viability ([1]; 0.6 µM): 1.06; viability ([1]; 3 µM): 1.01; viability ([1]; 15 µM): 0.0296; viability ([2]; 0.024 µM): 1.5; viability ([2]; 0.12 µM): 0.922; viability ([2]; 0.6 µM): 1.12; viability ([2]; 3 µM): 0.742; viability ([2]; 15 µM): 0.296; viability ([3]; 0.024 µM): 1.08; viability ([3]; 0.12 µM): 1; viability ([3]; 0.6 µM): 1.03; viability ([3]; 3 µM): 0.773; viability ([3]; 15 µM): 0.0262; viability ([4]; 0.024 µM): 0.938; viability ([4]; 0.12 µM): 0.924; viability ([4]; 0.6 µM): 0.773; viability ([4]; 3 µM): 0.53; viability ([4]; 15 µM): 0.0233; viability ([5]; 0.024 µM): 0.963; viability ([5]; 0.12 µM): 0.957; viability ([5]; 0.6 µM): 0.967; viability ([5]; 3 µM): 0.982; viability ([5]; 15 µM): 0.0181; viability ([6]; 0.024 µM): 1.02; viability ([6]; 0.12 µM): 0.996; viability ([6]; 0.6 µM): 0.964; viability ([6]; 3 µM): 0.721; viability ([6]; 15 µM): 0.0181; viability ([7]; 0.024 µM): 0.837; viability ([7]; 0.12 µM): 0.718; viability ([7]; 0.6 µM): 0.559; viability ([7]; 3 µM): 0.173; viability ([7]; 15 µM): 0.0192; viability ([8]; 0.024 µM): 0.974; viability ([8]; 0.12 µM): 0.866; viability ([8]; 0.6 µM): 0.562; viability ([8]; 3 µM): 0.393; viability ([8]; 15 µM): 0.0151; viability ([9]; 0.024 µM): 0.846; viability ([9]; 0.12 µM): 0.942; viability ([9]; 0.6 µM): 0.631; viability ([9]; 3 µM): 0.182; viability ([9]; 15 µM): 0.0175; viability ([10]; 0.024 µM): 0.958; viability ([10]; 0.12 µM): 0.963; viability ([10]; 0.6 µM): 0.995; viability ([10]; 3 µM): 0.773; viability ([10]; 15 µM): 0.0225; viability ([11]; 0.024 µM): 1; viability ([11]; 0.12 µM): 0.934; viability ([11]; 0.6 µM): 0.833; viability ([11]; 3 µM): 0.572; viability ([11]; 15 µM): 0.03; viability ([12]; 0.024 µM): 1.12; viability ([12]; 0.12 µM): 0.926; viability ([12]; 0.6 µM): 0.861; viability ([12]; 3 µM): 0.616; viability ([12]; 15 µM): 0.0299; viability ([13]; 0.024 µM): 0.897; viability ([13]; 0.12 µM): 0.84; viability ([13]; 0.6 µM): 0.771; viability ([13]; 3 µM): 0.4; viability ([13]; 15 µM): 0.0197; viability ([14]; 0.024 µM): 1.02; viability ([14]; 0.12 µM): 0.875; viability ([14]; 0.6 µM): 0.62; viability ([14]; 3 µM): 0.49; viability ([14]; 15 µM): 0.0171; viability ([15]; 0.024 µM): 1.05; viability ([15]; 0.12 µM): 0.943; viability ([15]; 0.6 µM): 0.928; viability ([15]; 3 µM): 0.684; viability ([15]; 15 µM): 0.0198; viability ([16]; 0.024 µM): 1.03; viability ([16]; 0.12 µM): 0.924; viability ([16]; 0.6 µM): 0.961; viability ([16]; 3 µM): 0.626; viability ([16]; 15 µM): 0.023; viability ([17]; 0.024 µM): 0.985; viability ([17]; 0.12 µM): 0.874; viability ([17]; 0.6 µM): 0.838; viability ([17]; 3 µM): 0.508; viability ([17]; 15 µM): 0.0191; viability ([18]; 0.024 µM): 0.947; viability ([18]; 0.12 µM): 0.77; viability ([18]; 0.6 µM): 0.436; viability ([18]; 3 µM): 0.176; viability ([18]; 15 µM): 0.0224
